test system: male Sprague-Dawley rats; assay: elevated maze test in the rat; type: in vivo; details: per os, 60-min pretreatment, 5-min measurement, time spent in the open arms and number of entries into the open arms
Description: Pharmacological activity of the compounds of the general Formula (I) has been evaluated in elevated maze test in the rat.
The tests were carried out according to the method of S. Pellow and coworkers (J. Neurosci. Methods. 1985, 14, 149-167). During the test, a wooden-floor cross elevated by 50 cm from the floor was used. The length and the width of the arms of the cross were 100 and 15 cm, respectively. Two opposite arms of the cross are fitted at the ends and both sides with black plexyglass wall of 40 cm height (closed arms).
The central section of the cross measuring 15 by 15 cm is open. The other two opposite arms of the cross are not provided with walls (open arms).
The tests were carried out in male Sprague-Dawley rats weighing 200 to 220 g. After the 60-min pretreatment time (per os treatment), the animal was placed in the center of the maze. During the 5-min measurement time, four variables were recorded: the time spent in the open arms; the time spent in the closed arms; the number of entries into the open arms; the number of entries into the closed arms.
Animals normally avoid the open and light parts of the maze, thereby spending little time therein only. The anxiolytic effect of the compounds of the general Formula (I) is indicated by the increase in the time spent (in seconds) in the open arms and/or by the increase in the number of the entries into the open compartments of the maze. The minimum effective dose (MED) was determined for each tested compounds regarding the time spent in the open arms and the number of entries into the open arms. During the test, the known anxiolytic compound 1-methyl-5-phenyl-7-chloro-1,3-dihydro-2H-1,4-benzodiazepin-2-one (INN: diazepam) of the Formula (IV)
was used. Treatment of the animals was carried out orally with the doses 0.1, 0.3, 1.0, 3.0 for diazepam and 0.01, 0.1, 1.0 mg/kg for the compounds of the general Formula (I).

SMILES	MED (minimum effective dose), anxiolytic effect in elevated maze test
CN1C(=O)CN=C(c2ccccc2)c2cc(Cl)ccc21 [Diazepam, 1-methyl-5-phenyl-7-chloro-1,3-dihydro-2H-1,4-benzodiazepin-2-one, reference compound]	1.00 mg/kg p.o.
CC1=NNS(=O)(=O)c2c1ccc(Cl)c2Cl [Example 3, 7,8-Dichloro-4-methylbenzo[1,2,3]tiadiazine-1,1-dioxide]	≦0.01 mg/kg p.o.
CC1=NNS(=O)(=O)c2c(Cl)c(Cl)cc(C)c21 [Example 5, 7,8-Dichloro-4,5-dimethylbenzo[1,2,3]thiadiazine-1,1-dioxide]	≦0.01 mg/kg p.o.
CN1N=Cc2ccc(Cl)c(Cl)c2S1(=O)=O [Example 20, 7,8-Dichloro-2-methylbenzo[1,2,3]thiadiazine-1,1-dioxide]	≦0.01 mg/kg p.o.

test system: not given; assay: not given; details: not given

SMILES	melting point [°C]
CC1=NNS(=O)(=O)c2cc(Cl)ccc21 [Example 1, 7-chloro-4-methylbenzo[1,2,3]thiadiazine-1,1-dioxide]	187 to 189
CCC1=NNS(=O)(=O)c2cc(Cl)ccc21 [Example 2, 4-Ethyl-7-chlorobenzo[1,2,3]thiadiazine-1,1-dioxide]	196 to 198
CCC1=NNS(=O)(=O)c2c1ccc(Cl)c2Cl [Example 4, 7,8-Dichloro-4-ethylbenzo[1,2,3]thiadiazine-1,1-dioxide]	238 to 239
CC1=NNS(=O)(=O)c2c(Cl)cccc21 [Example 6, 8-chloro-4-methylbenzo[1,2,3]thiadiazine-1,1-dioxide]	206 to 207
COc1ccc2c(c1Cl)S(=O)(=O)NN=C2C [Example 7, 8-chloro-4-methyl-7-methoxybenzo[1,2,3]thiadiazine-1,1-dioxide]	227 to 229
COc1cccc2c1S(=O)(=O)NN=C2C [Example 8, 4-Methyl-8-methoxybenzo[1,2,3]thiadiazine-1,1-dioxide]	194 to 197
COc1ccc2c(c1OC)S(=O)(=O)NN=C2C [Example 9, 7,8-Dimethoxy-4-methylbenzo[1,2,3]thiadiazine-1,1-dioxide]	238 to 240
CC1=NNS(=O)(=O)c2c1cc(C)c(Cl)c2Cl [Example 10, 7,8-Dichloro-4,6-dimethylbenzo[1,2,3]thiadiazine-1,1-dioxide]	224 to 226
O=S1(=O)NN=Cc2ccc(Cl)c(Cl)c21 [Example 11, 7,8-Dichlorobenzo[1,2,3]thiadiazine-1,1-dioxide]	183 to 185
COc1ccc2c(c1)C=NNS2(=O)=O [Example 12, 6-Methoxybenzo[1,2,3]thiadiazine-1,1-dioxide]	163 to 164
CC1=NNS(=O)(=O)c2ccccc21 [Example 13, 4-Methylbenzo[1,2,3]thiadiazine-1,1-dioxide]	183 to 185
COc1ccc2c(c1)S(=O)(=O)NN=C2C [Example 14, 4-Methyl-7-methoxybenzo[1,2,3]thiadiazine-1,1-dioxide]	174 to 176
O=S1(=O)NN=Cc2ccc(Cl)cc21 [Example 15, 7-chlorobenzo[1,2,3]thiadiazine-1,1-dioxide]	221 to 223
CCC1=NN(C)S(=O)(=O)c2c1ccc(Cl)c2Cl [Example 18, 7,8-Dichloro-4-ethyl-2-methylbenzo[1,2,3]thiadiazine-1,1-dioxide]	119 to 120
CCC1=NN(CC)S(=O)(=O)c2c1ccc(Cl)c2Cl [Example 19, 2,4-Diethyl-7,8-dichlorobenzo[1,2,3]thiadiazine-1,1-dioxide]	79 to 82
CN1N=Cc2ccc(Cl)c(Cl)c2S1(=O)=O [Example 20, 7,8-Dichloro-2-methylbenzo[1,2,3]thiadiazine-1,1-dioxide]	120 to 121
CN1N=Cc2ccc(Cl)cc2S1(=O)=O [Example 21, 7-chloro-2-methylbenzo[1,2,3]thiadiazine-1,1-dioxide]	131 to 133
COc1ccc2c(c1)C=NN(C)S2(=O)=O [Example 22, 2-Methyl-6-methoxybenzo[1,2,3]thiadiazine-1,1-dioxide]	99 to 101
CN1N=Cc2ccccc2S1(=O)=O [Example 23, 2-Methylbenzo[1,2,3]thiadiazine-1,1-dioxide]	79 to 80
CC1=NN(C)S(=O)(=O)c2c(Cl)c(Cl)cc(C)c21 [Example 24, 7,8-Dichloro-2,4,5-trimethylbenzo[1,2,3]thiadiazine-1,1-dioxide]	166 to 168
COc1ccc2c(c1Cl)S(=O)(=O)N(C)N=C2C [Example 25, 8-chloro-7-methoxy-2,4-dimethylbenzo[1,2,3]thiadiazine-1,1-dioxide]	151 to 152
CC1=NN(C)S(=O)(=O)c2c1cc(C)c(Cl)c2Cl [Example 26, 7,8-Dichloro-2,4,6-trimethylbenzo[1,2,3]thiadiazine-1,1-dioxide]	179 to 180
COc1ccc2c(c1Cl)S(=O)(=O)N(C)N=C2 [Example 28, 8-chloro-2-methyl-7-methoxybenzo[1,2,3]thiadiazine-1,1-dioxide]	173 to 175

Reference: patent US20100168087A1, “BENZO[1,2,3]THIADIAZINE DERIVATES” (priority 2006, published 2010)
